From publication PMC12040169 (PLOS Biology, 2025) come the findings set out here.

As a reminder, the viability is a read-out of living cells in per cent, often relative to untreated cells.

The first data set is described as follows: in vitro. Conditions: human, hela cells, % viability.
Consider `COc1ccc(CCCC(=O)Nc2cncc(OC3CCNCC3)n2)cc1OC` [CBK028437T], for which the viability at 28.5 h, 10 µM worked out at 87.3%.

With `CC(=O)N1CCc2cc(NC(=O)Cn3ccnc3C(C)C)ccc21` [CBK281471], the viability at 28.5 h, 10 µM worked out at 90.1%.

Consider `Cc1ccc(NS(=O)(=O)c2cc(C(=O)O)ccc2Cl)cc1S(=O)(=O)N1CCOCC1` [CBK296954], for which the viability at 28.5 h, 10 µM is 113%.

Take `COc1ccc(NC(=O)c2ccc3ncsc3c2)cc1` [CBK287368]: the viability at 28.5 h, 10 µM is 107%.

In the case of `CCOc1ccc(S(=O)(=O)Nc2ccc(C(=O)O)cc2)cc1` [CBK287171], the viability at 28.5 h, 10 µM was determined as 89.9%.

For the compound `Cc1ccc(C2CCCN2C(=O)c2ccc(=O)n(CC(=O)Nc3ccc(F)cc3)c2)cc1C` (centres unmarked) [CBK286088], the viability at 28.5 h, 10 µM came out at 107%.

`CCC(CN1CCCC1)NC(=O)C1CC(=O)Nc2ccccc21` (centres unmarked) [CBK282757]: the viability at 28.5 h, 10 µM turned out to be 90.6%.

For the compound `O=C(O)CNS(=O)(=O)c1cccc2cccnc12` [CBK034462], the viability at 28.5 h, 10 µM came to 85.9%.

Take `Cc1ccc2nc(-c3ccncc3)cc(C(=O)Nc3ccc(C(F)(F)F)cc3)c2c1` [CBK267732]: the viability at 28.5 h, 10 µM stood at 91.6%.

As to `CN(C(=O)CSc1nc2ccccc2nc1Cc1ccc(Cl)cc1)C1CCCCC1` [CBK294411], the viability at 28.5 h, 10 µM worked out at 104%.

Regarding `CC(=O)c1ccc(C(=O)Nc2ccc3nc(C)sc3c2)cc1` [CBK287310], the viability at 28.5 h, 10 µM is 95.5%.

For `N=C1NC(=O)/C(=C/c2c(OS(=O)(=O)c3ccc(Cl)cc3)ccc3ccccc23)S1` [CBK265311], the viability at 28.5 h, 10 µM was found to be 89.6%.

`COc1ccc(-c2n[nH]c(=S)n2CCC(=O)NCCc2cc(C)n(-c3ccccc3)c2C)cc1` [CBK295632]: the viability at 28.5 h, 10 µM was found to be 97.6%.

On to `CN(C)CCn1c([C@@H]2CCCO2)cc2cccnc21` [CBK282288], for which the viability at 28.5 h, 10 µM was determined as 105%.

As for `NC(=O)c1ccsc1NC(=O)C(F)(F)F` [CBK010915], the viability at 28.5 h, 10 µM turned out to be 96.4%.

For `O=C(O)c1ccc(NC(=O)c2ccccc2NC(=O)c2cccc(Br)c2)cc1` [CBK265517], the viability at 28.5 h, 10 µM was determined as 102%.

`Cc1nccn1CC1(O)CCN(C(=O)C2(c3ccccc3)CC2)CC1` [CBK284659]: the viability at 28.5 h, 10 µM was determined as 94.6%.

For the compound `O=C(O)c1cccc(NC(=S)NC(=O)c2ccc(-c3ccc(Br)cc3)o2)c1` [CBK265014], the viability at 28.5 h, 10 µM was determined as 95.6%.

As for `COc1ccc(Cl)cc1NC(=S)NNC(=O)c1cc(C)nc2ccccc12` [CBK266920], the viability at 28.5 h, 10 µM worked out at 50.5%.

`O=c1[nH]c(=O)c2cc(S(=O)(=O)Nc3ccc(Oc4cccnc4)cc3)ccc2[nH]1` [CBK286386]: the viability at 28.5 h, 10 µM stood at 99.2%.

As for `CN(C)S(=O)(=O)c1ccc(C(=O)C2=C(O)C(=O)N(CCN3CCCCC3)C2c2cccnc2)cc1` (centres unmarked) [CBK264700], the viability at 28.5 h, 10 µM came to 99.9%.

Consider `COc1cccc(NC(=O)C(=O)NCCCO)c1` [CBK262095], for which the viability at 28.5 h, 10 µM turned out to be 89.6%.

For the compound `CN(C)CCCC(=O)Nc1ccc2ncccc2c1` [CBK159824], the viability at 28.5 h, 10 µM came to 83.4%.

As for `Cc1c(C=Cc2cc(C(=O)O)c3ccccc3n2)cc(C#N)n1C` [CBK295604], the viability at 28.5 h, 10 µM came out at 104%.

For the compound `O=C(CN1C(=O)N2CCCN=C2c2ccccc21)NC1CCCCC1` [CBK284396], the viability at 28.5 h, 10 µM is 88.8%.

As for `Fc1ccc2c(ccn2CCCN2CCN(c3ccncc3)CC2)c1` [CBK043645G], the viability at 28.5 h, 10 µM is 89.4%.

`CN1CCN(C(=O)CNS(=O)(=O)c2cc(F)c(Br)cc2F)CC1` [CBK034481]: the viability at 28.5 h, 10 µM worked out at 99.5%.

For the compound `Oc1ccc(Cn2ccnc2)c2cccnc12` [CBK291102], the viability at 28.5 h, 10 µM worked out at 89.3%.

In the case of `O=C1CCC(=O)N1CCOc1nccnc1N1CCN(CCc2ccccn2)CC1` [CBK084309], the viability at 28.5 h, 10 µM stood at 109%.

For `NNC(=O)Cn1c(-c2ccccn2)nc2ccccc21` [CBK263489], the viability at 28.5 h, 10 µM came to 108%.

`COc1ccc(CNCCN2CCOCC2)c(OC)c1` [CBK278180C]: the viability at 28.5 h, 10 µM was 90.1%.

Turning to `N#C/C(=C/c1ccc(-c2ccc(S(N)(=O)=O)cc2)o1)C(=O)Nc1ccccc1` [CBK263123], the viability at 28.5 h, 10 µM amounted to 119%.

`CCOC(=O)c1sc(NS(=O)(=O)c2ccc(Cl)c(Cl)c2)nc1C` [CBK077228]: the viability at 28.5 h, 10 µM is 92.5%.

Turning to `CCCC(=O)c1ccc(S(=O)(=O)N2CCCN(Cc3ccc(OC)c(F)c3)CC2)cc1` [CBK062926], the viability at 28.5 h, 10 µM stood at 93.7%.

As for `CCCNc1nc(Cl)nc(NC(C)(C)C)n1` [CBK091674], the viability at 28.5 h, 10 µM stood at 86.3%.

For `N#Cc1cccc(CN2CCCC3(CCN(C(=O)c4cc(F)c(F)cc4F)C3)C2)c1` (centres unmarked) [CBK131993], the viability at 28.5 h, 10 µM stood at 100%.

On to `O=C(COc1ccc(Cl)cc1Cl)NC(Cc1ccccc1)C(=O)O` (centres unmarked) [CBK261061], for which the viability at 28.5 h, 10 µM amounted to 102%.

In the case of `O=c1oc(-c2ccoc2)nn1Cc1ccccc1F` [CBK283726], the viability at 28.5 h, 10 µM stood at 98.5%.

As to `O=C(O)/C(O)=C/C(=O)c1ccc(F)cc1` [CBK261844], the viability at 28.5 h, 10 µM was 89.4%.

For `CCN1C(=O)CC(C(=O)O)S/C1=N\c1ccc(OC)cc1` (centres unmarked) [CBK287266], the viability at 28.5 h, 10 µM came out at 105%.

`Cc1cc(NC(=O)c2cccc(C(F)(F)F)c2)c2ccccc2n1` [CBK116263]: the viability at 28.5 h, 10 µM was 90%.

As for `O=C(O)CSc1ccc(Br)c2cccc(C(=O)O)c12` [CBK126919], the viability at 28.5 h, 10 µM stood at 99.2%.

Regarding `Cc1nc2cc(OCc3nc(C(=O)NC4CCNC4=O)co3)ccc2s1` (centres unmarked) [CBK307298], the viability at 28.5 h, 10 µM amounted to 91.8%.

As for `COc1ccc(C2N3CCCN2CC3)cc1` (centres unmarked) [CBK067068], the viability at 28.5 h, 10 µM was determined as 92.3%.

As to `Cn1c(=O)[nH]c(=O)c2c1nc(Sc1ncccn1)n2CCCc1ccccc1` [CBK269282], the viability at 28.5 h, 10 µM was 86.3%.

For the compound `Cc1nn(-c2ccccc2)c(C)c1CNC(=O)C1C2C=CC(C2)C1C(=O)O` (centres unmarked) [CBK286877], the viability at 28.5 h, 10 µM was 90.4%.

For the compound `O=C(NCN1CCN(c2ccc([N+](=O)[O-])cc2)CC1)c1cccnc1` [CBK264909], the viability at 28.5 h, 10 µM came out at 106%.

As for `CC(=O)c1c(C)c2c(=O)n3c(nc2[nH]c1=O)CCC3` [CBK287872], the viability at 28.5 h, 10 µM was 93.6%.

In the case of `Cc1ccccc1N1C(=O)c2ccc(Br)cc2C1=O` [CBK022430], the viability at 28.5 h, 10 µM was 90.9%.

`COC1C(O)=CC(=O)OC1(CCc1ccco1)CCc1ccco1` (centres unmarked) [CBK001858]: the viability at 28.5 h, 10 µM came to 86.7%.

`NC(=O)CCn1c(=S)n(CCC(N)=O)c2ccccc21` [CBK262301]: the viability at 28.5 h, 10 µM turned out to be 86.2%.

In the case of `Cc1ccc2c(c1)nc(CNC(=O)NCc1ccnc(C)n1)n2C` [CBK304292], the viability at 28.5 h, 10 µM worked out at 101%.

For the compound `CCn1ncc(S(=O)(=O)N2CCC(c3cccc(Cc4ccccc4C)n3)CC2)c1C` [CBK286116], the viability at 28.5 h, 10 µM is 91%.

`Cn1nnnc1SCCNC(=O)Nc1ccc(CN2CCOCC2)cc1` [CBK307084]: the viability at 28.5 h, 10 µM turned out to be 97.4%.

On to `CC1CCc2nc(NC(=O)c3ccccc3)sc2C1` (centres unmarked) [CBK287298], for which the viability at 28.5 h, 10 µM stood at 97.2%.

As to `O=C(CSc1ccc(-n2ccnc2)nn1)Nc1cccnc1` [CBK287635], the viability at 28.5 h, 10 µM was found to be 97.6%.

With `Cc1cccc(NCC(O)Cn2c3ccc(Br)cc3c3cc(Br)ccc32)c1` (centres unmarked) [CBK261419], the viability at 28.5 h, 10 µM is 94.5%.

Turning to `c1ccc(-c2n[nH]cc2-c2cncn2CCCN2CCCCC2)cc1` [CBK281464], the viability at 28.5 h, 10 µM worked out at 90.4%.

As to `COc1ccccc1C1C(C(=O)c2sc(C)nc2C)=C(O)C(=O)N1CCCN1CCOCC1` (centres unmarked) [CBK266592], the viability at 28.5 h, 10 µM worked out at 113%.

For `Cc1ccccc1C(=O)NC(NCC1CCCO1)C(Cl)(Cl)Cl` (centres unmarked) [CBK262273], the viability at 28.5 h, 10 µM was 91.9%.

With `Cc1cc(C)n(CC(C)C(=O)Nc2cccnc2)n1` (centres unmarked) [CBK307573], the viability at 28.5 h, 10 µM worked out at 97.5%.

In the case of `O=C(c1ccccn1)N1C[C@@H]2OCC(=O)N(Cc3ccccc3)[C@@H]2C1` [CBK289698], the viability at 28.5 h, 10 µM came out at 84.3%.

In the case of `NS(=O)(=O)c1ccc(CCNC2CC(=O)N(CCc3ccccc3)C2=O)cc1` (centres unmarked) [CBK263502], the viability at 28.5 h, 10 µM was 93.4%.

Regarding `COC(=O)C1C=C(NS(=O)(=O)c2ccc(-c3ccnc(SC)n3)s2)C=CC1` (centres unmarked) [CBK160388], the viability at 28.5 h, 10 µM came to 104%.

As for `CSCCCNC(=O)N(CCc1ccccc1)Cc1ccccc1` [CBK155317], the viability at 28.5 h, 10 µM was 87.2%.

As for `Cc1ccc(-c2c(C(=O)NNC(=S)NCC3CCCO3)csc2C)cc1` (centres unmarked) [CBK267062], the viability at 28.5 h, 10 µM was found to be 86.6%.

Regarding `CC(=O)C(C)n1c(=O)c2c(nc3oc(C(C)(C)C)cn32)n(C)c1=O` (centres unmarked) [CBK306027], the viability at 28.5 h, 10 µM is 91.1%.

In the case of `COc1ccc(-c2noc([C@@H]3C[C@@H](O)CN3C3CCOCC3)n2)cc1` [CBK288844], the viability at 28.5 h, 10 µM worked out at 83.7%.

Take `CN1CCN(C(=O)c2ccc(-c3ccc(N4CCOCC4)cc3)nc2N(C)C)CC1` [CBK106114]: the viability at 28.5 h, 10 µM is 90%.

On to `FC(F)(F)c1ccnc(Sc2nc[nH]n2)n1` [CBK093806], for which the viability at 28.5 h, 10 µM was found to be 93.1%.

In the case of `COc1ccc(CNC(C)C2COc3ccccc3O2)c(OC)c1` (centres unmarked) [CBK074283G], the viability at 28.5 h, 10 µM came to 88.8%.

`COc1ccc(C2=NN(c3ccc([N+](=O)[O-])cc3)C(=O)/C2=C/NCc2ccccn2)cc1` [CBK265276]: the viability at 28.5 h, 10 µM was 107%.

For the compound `Clc1cc(NCCc2c[nH]c3ccccc23)n2nccc2n1` [CBK037218], the viability at 28.5 h, 10 µM was found to be 40.6%.

For `CC(=O)Nc1ccc(S(=O)(=O)N2CCCCC2C(=O)O)cc1` (centres unmarked) [CBK265241], the viability at 28.5 h, 10 µM was determined as 102%.

Regarding `CN(C)C(=O)c1cn2cc(-c3cccs3)n(CC3CC3)c(=O)c2n1` [CBK307440], the viability at 28.5 h, 10 µM was 91.4%.

In the case of `COc1ccc(-c2nnc([C@H]3CCN(C(=O)C4CC4)C3)o2)cc1` [CBK289409], the viability at 28.5 h, 10 µM is 89.6%.

`COc1cccc(/C=N/NC(=O)CCN2CCN(C)CC2)c1O` [CBK261499]: the viability at 28.5 h, 10 µM is 91.3%.

`CCCC/C=C/c1cn2ccnc2c(Nc2ccc(OC)nc2)n1` [CBK038089]: the viability at 28.5 h, 10 µM came out at 100%.

As for `CSCCOc1nc2ccccc2nc1N1CCCC1` [CBK115770], the viability at 28.5 h, 10 µM amounted to 91.3%.

The same data set, now with this note: human, hela cells, % viability, bulk resorufin, single well.
Consider `O=C(Nc1ccccc1C(F)(F)F)N1CCC2(CC1)OCCO2` [CBK043655], for which the viability at 28.5 h, 10 µM is 94.1%.
